Numbers after ± are expanded uncertainties.
Assay: Solid-liquid equilibrium temperature

Row | SMILES | Solid-liquid equilibrium temperature (100 kPa, Crystal 1) | Solid-liquid equilibrium temperature (20000 kPa, Crystal 1) | Solid-liquid equilibrium temperature (40000 kPa, Crystal 1) | Solid-liquid equilibrium temperature (60000 kPa, Crystal 1) | Solid-liquid equilibrium temperature (80000 kPa, Crystal 1) | Solid-liquid equilibrium temperature (100000 kPa, Crystal 1) | Solid-liquid equilibrium temperature (100 kPa, Crystal) | Solid-liquid equilibrium temperature (20000 kPa, Crystal) | Solid-liquid equilibrium temperature (40000 kPa, Crystal) | Solid-liquid equilibrium temperature (60000 kPa, Crystal) | Solid-liquid equilibrium temperature (80000 kPa, Crystal) | Solid-liquid equilibrium temperature (100000 kPa, Crystal)
1 | CCCCCCCCCCCCCCCC [hexadecane] | 291.5 ± 0.9 K | 296 ± 0.9 K | 300.4 ± 0.9 K | 304.8 ± 0.9 K | 309.7 ± 0.9 K | 313.5 ± 0.9 K | – | – | – | – | – | –
2 | CCCCCCCCCCCCCCC [pentadecane] | – | – | – | – | – | – | 283.2 ± 0.9 K | 287.8 ± 0.9 K | 291.9 ± 0.9 K | 296.2 ± 0.9 K | 300.1 ± 0.9 K | 303.9 ± 0.9 K
3 | CCCCCCCCCCCCCC [tetradecane] | – | – | – | – | – | – | 279.2 ± 0.9 K | 284.2 ± 0.9 K | 289.1 ± 0.9 K | 293.8 ± 0.9 K | 297.9 ± 0.9 K | 301.7 ± 0.9 K
